Source: patent publication US20110312941A1, “1,4-DISUBSTITUTED PIPERIDINES AS VASOPRESSIN RECEPTOR VIA ANTAGONISTS” (VANTIA LIMITED, priority 2009, published 2011)

Biological target: T1, cloned human V1a receptor (Homo sapiens, UniProt P37288)
T1 construct: host or cells: human brain astrocytoma 1321N1 cells
Assay: in vitro functional calcium mobilisation assay (FLIPR), antagonist activity, 1321N1 cells, 250 pM AVP
Type: cell-based
Conditions: functional pKi derived from pIC50 (Equation 1), FLIPR Ca2+ mobilisation, 1321N1 cells expressing cloned human V1a receptor, read-out: Mean fpKi (Human V1a) (converted)
Protocol: The primary assay which may be used to determine the ability of the compounds of formula (1) to inhibit the vasopressin V1a receptor is an in vitro functional calcium mobilisation assay (FLIPR) that measures antagonist activity at a cloned human V1a receptor. The assay is described below.
The antagonist activity of compounds of formula (1) were determined in a Calcium (Ca2+) mobilisation assay using whole cells (human brain astrocytoma 1321N1 cells, ex Perkin Elmer) genetically modified to stably express a cloned human V1a receptor. Dose response curves were determined by displacement of a single concentration of agonist (250 pM AVP, ex Sigma) with increasing concentrations of compound. A pIC50 value is determined by non-linear regression to a 4-parameter logistic equation and a functional pKi (fpKi) derived using Equation 1.
where A=agonist single conc, and A50=the agonist EC50.

T1 sequence (P37288 whole entry): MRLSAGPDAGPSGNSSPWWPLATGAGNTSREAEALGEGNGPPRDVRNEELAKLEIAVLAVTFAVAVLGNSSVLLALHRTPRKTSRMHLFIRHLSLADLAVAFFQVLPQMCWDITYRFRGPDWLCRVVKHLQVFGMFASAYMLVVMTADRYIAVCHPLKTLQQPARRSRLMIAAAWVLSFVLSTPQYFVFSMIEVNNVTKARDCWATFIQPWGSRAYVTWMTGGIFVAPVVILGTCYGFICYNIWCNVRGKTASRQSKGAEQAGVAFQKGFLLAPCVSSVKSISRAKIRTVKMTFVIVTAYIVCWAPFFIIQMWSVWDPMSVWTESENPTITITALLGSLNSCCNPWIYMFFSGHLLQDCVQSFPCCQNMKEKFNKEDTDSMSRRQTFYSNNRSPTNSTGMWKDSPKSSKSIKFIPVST

Ki [nM] | SMILES
7.41 | CCCc1nc2c([nH]1)-c1cc(C)ccc1N(C(=O)C1CCN(c3cccc(C)n3)CC1)CC2 [Example 62]
1.86 | Cc1ccc2c(c1)-c1[nH]c(N3CCOCC3)nc1CCN2C(=O)C1CCN(c2cccc(C)n2)CC1 [Example 63]
6.31 | COc1cccc(N2CCC(C(=O)N3CCc4nc(N5CCOCC5)[nH]c4-c4cc(C)ccc43)CC2)n1 [Example 64]
7.59 | Cc1ccc2c(c1)-c1[nH]c(C3CCOCC3)nc1CCN2C(=O)C1CCN(c2cccc(C)n2)CC1 [Example 65]
30.9 | COc1cccc(N2CCC(C(=O)N3CCc4nc(C5CCOCC5)[nH]c4-c4cc(C)ccc43)CC2)n1 [Example 66]
1.35 | Cc1cccc(N2CCC(C(=O)N3CCc4nc(N5CCOCC5)[nH]c4-c4cc(Cl)ccc43)CC2)n1 [Example 67]
1.91 | COc1cccc(N2CCC(C(=O)N3CCc4nc(N5CCOCC5)[nH]c4-c4cc(Cl)ccc43)CC2)n1 [Example 68]
13.8 | Cc1ccc2c(c1)-c1[nH]c(N3CCOCC3)nc1CCN2C(=O)C1CCN(c2cnccc2C)CC1 [Example 69]
6.61 | Cc1cncc(N2CCC(C(=O)N3CCc4nc(N5CCOCC5)[nH]c4-c4cc(C)ccc43)CC2)c1 [Example 70]
16.6 | Cc1ccc2c(c1)-c1[nH]c(N3CCOCC3)nc1CCN2C(=O)C1CCN(c2cccnc2C)CC1 [Example 71]
9.12 | Cc1nc2c([nH]1)-c1cc(Cl)ccc1N(C(=O)C1CCN(c3ccccc3)CC1)CC2 [Example 72]
6.17 | CCc1nc2c([nH]1)-c1cc(Cl)ccc1N(C(=O)C1CCN(c3ccccc3)CC1)CC2 [Example 73]
15.1 | CCCc1nc2c([nH]1)-c1cc(Cl)ccc1N(C(=O)C1CCN(c3ccccc3)CC1)CC2 [Example 74]
11 | O=C(C1CCN(c2ccccc2)CC1)N1CCc2nc(C3CC3)[nH]c2-c2cc(Cl)ccc21 [Example 75]
28.2 | O=C(C1CCN(c2ccccc2)CC1)N1CCc2nc(C3CCCCC3)[nH]c2-c2cc(Cl)ccc21 [Example 76]
18.2 | O=C(C1CCN(c2ccccc2)CC1)N1CCc2nc(N3CCCCC3)[nH]c2-c2cc(Cl)ccc21 [Example 77]
8.71 | CN1CCN(c2nc3c([nH]2)-c2cc(Cl)ccc2N(C(=O)C2CCN(c4ccccc4)CC2)CC3)CC1 [Example 78]
77.6 | O=C(C1CCN(c2ccccc2)CC1)N1CCc2nc(-c3ccccc3)[nH]c2-c2cc(Cl)ccc21 [Example 79]
81.3 | O=C(C1CCN(c2ccccc2)CC1)N1CCc2nc(-c3ccccc3F)[nH]c2-c2cc(Cl)ccc21 [Example 80]
93.3 | O=C(C1CCN(c2ccccc2)CC1)N1CCc2nc(-c3cccc(F)c3)[nH]c2-c2cc(Cl)ccc21 [Example 81]
42.7 | O=C(C1CCN(c2ccccc2)CC1)N1CCc2nc(Cc3ccccc3)[nH]c2-c2cc(Cl)ccc21 [Example 82]
26.3 | Cc1nc2c([nH]1)-c1cc(Cl)ccc1N(C(=O)C1CCN(c3ccccc3F)CC1)CC2 [Example 83]
38 | Cc1nc2c([nH]1)-c1cc(Cl)ccc1N(C(=O)C1CCN(c3cccc(F)c3)CC1)CC2 [Example 84]
11 | Cc1nc2c([nH]1)-c1cc(Cl)ccc1N(C(=O)C1CCN(c3ccc(F)cc3)CC1)CC2 [Example 85]
31.6 | Cc1nc2c([nH]1)-c1cc(Cl)ccc1N(C(=O)C1CCN(c3ccccc3Cl)CC1)CC2 [Example 86]
69.2 | Cc1nc2c([nH]1)-c1cc(Cl)ccc1N(C(=O)C1CCN(c3cccc(Cl)c3)CC1)CC2 [Example 87]
6.17 | Cc1nc2c([nH]1)-c1cc(Cl)ccc1N(C(=O)C1CCN(c3ccc(Cl)cc3)CC1)CC2 [Example 88]
25.7 | Cc1nc2c([nH]1)-c1cc(Cl)ccc1N(C(=O)C1CCN(c3ccccc3C)CC1)CC2 [Example 89]
9.55 | Cc1cccc(N2CCC(C(=O)N3CCc4nc(C)[nH]c4-c4cc(Cl)ccc43)CC2)c1 [Example 90]
1.26 | Cc1ccc(N2CCC(C(=O)N3CCc4nc(C)[nH]c4-c4cc(Cl)ccc43)CC2)cc1 [Example 91]
